The test concerns the target S. cerevisiae eIF2B mutant, luciferase reporter luminescence. Briefly: potency on yeast eIF2B luminescence signal – S. cerevisiae, mutant, wild-type, growth, dose response (AID 792).
Setting [1] is: measured here: mutant yeast growth.

Results filed as inconclusive are left out. Active and inactive are the calls of the source. How the calls were made is not given here.

We go through 26 compounds from PubChem BioAssay AID792 (PCMD, 2007).

Consider `CCC(=O)N(Cc1cc(=O)[nH]c2ccccc12)c1cccc(C)c1`, for which the IC50 (in general, the point on the concentration scale where inhibition reaches its midpoint) is > 100 µM (inactive). The IC50 under setting [1] is over 100 µM.
Taken in the same sequence, the figures for `COc1ccc(C2(C)NC(=O)N(CC(=O)Nc3ccc4c(c3)OCO4)C2=O)cc1OC` (stereo not drawn) were > 100 µM (inactive) and over 100 µM.
As to `COc1ccc(C2=CSC3=NCCN23)cc1F`, the IC50 was > 100 µM (inactive). This compound also came in with a concentration for half-maximal inhibition (IC50) under setting [1] of over 100 µM.
Taken in the same sequence, the figures for `Cc1cccc(-c2nnc(SCC#N)n2Cc2ccccc2)c1` were > 100 µM (inactive) and over 100 µM.
For `Cn1c(SC2C(=O)CC(C)(C)CC2=O)nnc1-c1ccco1`, in that order: > 100 µM (inactive) and over 100 µM.
For `O=C(c1ccc(Br)o1)N1CCCc2ccccc21`, in that order: > 100 µM (inactive) and over 100 µM.
As for `CCN(CC)c1ccc(NC(=O)c2cccc(OC)c2)c(C)c1`, the IC50 entry is “inactive”. Further, the half-inhibitory concentration (IC50) (S. cerevisiae wild-type, luminescence) was over 100 µM. Also, the concentration for half-maximal inhibition (IC50) under setting [1] was over 100 µM.
On to `Fc1ccc2c(c1)nnn2C1CCN(Cc2nnnn2C2CCCCC2)CC1`, for which the IC50 was > 100 µM (inactive). The compound further yielded an IC50 under setting [1] of over 100 µM.
Taken in the same sequence, the figures for `O=C(Nc1cccnc1)c1ccccc1Oc1ccccc1` were > 100 µM (inactive) and over 100 µM.
Taken in the same sequence, the figures for `COc1ccc(C2SCC(=O)Nc3c2c(C)nn3C2CCOC(C)(C)C2)cc1` (stereo not drawn) were > 100 µM (inactive) and over 100 µM.
Take `CCc1cc(=O)oc2cc3oc(C)c(C)c3cc12`: the IC50 is > 100 µM (inactive). This compound also returned an IC50 under setting [1] of over 100 µM.
For the compound `COC(=O)Cc1c(C)c2cc(Cl)c(OC(=O)c3ccco3)cc2oc1=O`, the IC50 was > 100 µM (inactive). Besides, the 50% inhibitory concentration (IC50) under setting [1] is over 100 µM.
Taken in the same sequence, the figures for `O=C(CSc1nc(-c2ccco2)cc(C(F)(F)F)n1)Nc1ccccc1C(F)(F)F` were > 100 µM (inactive) and over 100 µM.
Taken in the same sequence, the figures for `Cc1cc2nnc(SCC(=O)NCc3cccs3)n2c2ccccc12` were > 100 µM (inactive) and over 100 µM.
Take `CCOC(=O)C1CCN(c2ncnc3c2oc2ccccc23)CC1`: the IC50 is > 100 µM (inactive). This compound registered an IC50 under setting [1] of over 100 µM.
For `CC(=C1C(=O)c2ccccc2C1=O)N1CCN(CCN=Cc2c(O)n(C)c(=O)n(C)c2=O)CC1`, in that order: > 100 µM (inactive) and over 100 µM.
For `c1ccc2c(c1)ncn2-c1ncnc2sc3c(c12)CCCC3`, in that order: > 100 µM (inactive) and over 100 µM.
For `COc1ccc(C(=O)CSc2nnc(COc3ccccc3)n2Cc2ccco2)cc1`, in that order: > 100 µM (inactive) and over 100 µM.
As for `O=C(CSc1nnc(-c2ccccn2)n1-c1ccccc1)Nc1ccc2c(c1)OCO2`, the IC50 was > 100 µM (inactive). This compound registered an IC50 under setting [1] of over 100 µM.
For `O=c1c(-c2cc3ccccc3o2)[n+]([O-])c2ccccc2n1OCc1ccccn1`, in that order: > 100 µM (inactive) and over 100 µM.
For `Cc1ccc(N2CC(C(=O)Nc3ccccc3C(=O)NC3CCCCC3)CC2=O)cc1C` (stereo not drawn), in that order: > 100 µM (inactive) and over 100 µM.
Taken in the same sequence, the figures for `CS(=O)(=O)c1ccc2nc(NC(=O)C3C4C=CC(C4)C3C(=O)O)sc2c1` (stereo not drawn) were > 100 µM (inactive) and over 100 µM.
On to `Cc1ccc2c(c1)N(CC(=O)NCc1cccnc1)C(=O)CO2`, for which the IC50 was > 100 µM (inactive). Under setting [1], this compound registered an IC50 of over 100 µM.
Taken in the same sequence, the figures for `CCCCNS(=O)(=O)c1cccc(S(=O)(=O)N2CCCC2)c1` were > 100 µM (inactive) and over 100 µM.
For `CCOC(=O)C1(CCSC)NC(c2ccco2)C2C(=O)N(C)C(=O)C21` (stereo not drawn), in that order: > 100 µM (inactive) and over 100 µM.
For `COc1ccccc1CC(=O)N1CCN(c2cccc(C(F)(F)F)c2)CC1`, in that order: > 100 µM (inactive) and over 100 µM.
